Assay results reported in article PMC11106739, “Discovery and Derivatization of Tridecaptin Antibiotics with Altered Host Specificity and Enhanced Bioactivity” (ACS Chemical Biology, 2024).
Values after ≈ are worked out from the molar mass of the structure shown. Where a SMILES comes first, the peptide text is derived from it. [ ]: non-standard residue; d: D form. The star is where a group is joined. d(aIle) = CC[C@H](C)[C@@H](N)C(=O)O; dDab = NCC[C@@H](N)C(=O)O; Octanoyl = CCCCCCCC(=O)*; Dab = NCC[C@H](N)C(=O)O

Tests used:
E. faecium IHMA 890472 = format: cell-based, Enterococcus faecium; conditions: IHMA 890472, 20 h
Description: (§1) All minimum inhibitory concentrations (MICs) were determined according to the Clinical and Standards Laboratory Institute (CLSI) guidelines. In brief, agar plates were inoculated from glycerol stocks and incubated overnight at 35 °C. Peptide DMSO stocks were dispensed into 96-well round-bottom plates using a TECAN D300e dispenser. Colistin sulfate (Sigma-Aldrich) was dissolved in water and serially diluted in a cation-adjusted Mueller Hinton broth (10 μL per well). Final concentrations of the test compounds were 0.06 to 64 μg/mL. Inocula were prepared by direct colony suspension in NaCl at 0.5 MacFarland, which was further diluted 200-fold in cation-adjusted Mueller Hinton broth for a target inoculum of 2 × 10^5 colony forming units (CFUs)/mL. 100 μL portion of the prepared inoculum was added to each well of the prepared plates containing the test compounds. Plates were sealed with parafilm and incubated for 20 h at 35 °C. Images of all plates were recorded, and MIC was assessed visually.

E. faecium ATCC 51559 = format: cell-based, Enterococcus faecium; conditions: ATCC 51559, 20 h
Description: as §1

P. aeruginosa PAO1 = format: cell-based, Pseudomonas aeruginosa; conditions: PAO1, 20 h
Description: as §1

P. aeruginosa 1218019 = format: cell-based, Pseudomonas aeruginosa; conditions: 1218019, 20 h
Description: as §1

P. aeruginosa 1226072 = format: cell-based, Pseudomonas aeruginosa; conditions: 1226072, 20 h
Description: as §1

K. pneumoniae ATCC 13883 = format: cell-based, Klebsiella pneumoniae; conditions: ATCC 13883, 20 h
Description: as §1

K. pneumoniae 1228586 = format: cell-based, Klebsiella pneumoniae; conditions: 1228586, 20 h
Description: as §1

K. pneumoniae 1227947 = format: cell-based, Klebsiella pneumoniae; conditions: 1227947, 20 h
Description: as §1

HepG2 cells = experiment: Cytotoxicity determination (CellTiter-Glo); format: cell-based; conditions: HepG2, medium without serum, 24 h, normalization to the untreated control, 1 to 128 μg/mL tested
Description: HepG2 cells were grown in EMEM (Sigma) supplemented with 2 mM glutamine and 10% fetal bovine serum (Fisher) at 37 °C, 5% CO2. 20′000 cells per well were seeded into clear tissue culture-treated 96-well plates and incubated for 24 h. Peptides, dissolved in DMSO, were dispensed into 96 deep well plates (TECAN D300e dispenser) and diluted to a final concentration of 1 to 128 μg/mL using fresh medium without serum. The next day, the old media were removed from the cells, and 200 μL of the prepared compound dilutions was added per well. Plates were incubated for another 24 h before assessing the cell viability using the CellTiter-Glo kit (Promega) according to the manufacturer’s protocol. IC50s were calculated after normalization to the untreated control.

[1] = tested on: Gram-positive bacteria (Staphylococcus aureus, Enterococcus faecalis, Enterococcus faecium); experiment: MIC, summary over Gram-positive strains; format: cell-based; conditions: at a concentration of 64 μg/mL; summary of Table 2
Description: as §1

E. faecalis ATCC 29212 = format: cell-based, Enterococcus faecalis; conditions: ATCC 29212, 20 h
Description: as §1

ATCC 25922 = format: cell-based, Enterococcus faecalis; conditions: ATCC 25922, 20 h
Description: as §1

[2] = tested on: Gram-negative ESKAPE pathogens; format: cell-based; conditions: 20 h
Description: as §1

S. aureus ATCC 29213 = format: cell-based, Staphylococcus aureus; conditions: ATCC 29213, 20 h
Description: as §1

S. aureus 1126387 = format: cell-based, Staphylococcus aureus; conditions: 1126387, 20 h
Description: as §1

S. aureus UAMS-1625 = format: cell-based, Staphylococcus aureus; conditions: S. aureus UAMS-1625 (BV18); CLSI broth dilution, cation-adjusted Mueller Hinton broth, 20 h, 35 °C, read visually
Description: as §1

E. coli 1214245 = format: cell-based, Escherichia coli; conditions: 1214245, 20 h
Description: as §1

E. coli 1220120 = format: cell-based, Escherichia coli; conditions: 1220120, 20 h
Description: as §1

E. coli ATCC 25922 = format: cell-based, Escherichia coli; conditions: ATCC 25922, 20 h
Description: as §1

Rabbit red blood cells = experiment: Hemolysis assay; format: cell-based; conditions: rabbit red blood cells in PBS, 37 °C, 1 h, absorbance at 405 nm, normalization to the Triton X-100 control; 0.25 to 128 μg/mL tested
Description: Peptides, dissolved in DMSO, were dispensed into 96-well round-bottom microplates using a TECAN D300e dispenser and subsequently diluted with 100 μL of PBS. PBS or 2% Triton X-100 was used as negative and positive controls, respectively. Rabbit red blood cells (BioConcept) were diluted in PBS to a final concentration of 2%, and 100 μL was added to each well of the prepared 96-well plates. The final concentration of the test compounds was 0.25 to 128 μg/mL. Plates were incubated at 37 °C for 1 h and afterward subjected to centrifugation at 1000g for 5 min. Then, 30 μL of supernatant was transferred to a new round-bottom plate, and absorbance was measured at 405 nm (TECAN Infinite F200). EC50s were calculated after blank subtraction and normalization to the Triton control.

A. baumannii IHMA 777621 = format: cell-based, Acinetobacter baumannii; conditions: IHMA 777621, 20 h
Description: as §1

A. baumannii HUMC1 = format: cell-based, Acinetobacter baumannii; conditions: HUMC1, 20 h
Description: as §1

A. baumannii ATCC 17978 = format: cell-based, Acinetobacter baumannii; conditions: ATCC 17978, 20 h
Description: as §1

SMILES	MIC (E. faecium IHMA 890472)	MIC (E. faecium ATCC 51559)	MIC (P. aeruginosa PAO1)	MIC (P. aeruginosa 1218019)	MIC (P. aeruginosa 1226072)	MIC (K. pneumoniae ATCC 13883)	MIC (K. pneumoniae 1228586)	MIC (K. pneumoniae 1227947)	IC50 on HepG2 w/o FCS (HepG2 cells)	antibacterial activity against Gram-positive bacteria [1]	MIC (E. faecalis ATCC 29212)	MIC (ATCC 25922)	MICs, range over Gram-negative pathogens [2]	MIC (S. aureus ATCC 29213)	MIC (S. aureus 1126387)	MIC (S. aureus UAMS-1625)	MIC (E. coli 1214245)	MIC (E. coli 1220120)	MIC (E. coli ATCC 25922)	Hemolysis EC50 (Rabbit red blood cells)	other results
CCCCCCCC(=O)N[C@@H](C(=O)N[C@H](CCN)C(=O)NCC(=O)N[C@H](CO)C(=O)N[C@H](Cc1c[nH]c2ccccc12)C(=O)N[C@@H](CO)C(=O)N[C@@H](CCN)C(=O)N[C@H](CCN)C(=O)N[C@@H](C)C(=O)N[C@@H](CCC(=O)O)C(=O)N[C@H](C(=O)N[C@@H](C(=O)N[C@@H](C)C(=O)O)[C@@H](C)CC)C(C)C)C(C)C [Oct-Ala9] (Octanoyl-[dV][dDab]G[dS][dW]S[Dab][dDab]AEV[d(aIle)]A-OH)	>64 µg/mL	>64 µg/mL	64 µg/mL (≈ 44.3 µM)	>64 µg/mL	32 µg/mL (≈ 22.1 µM)	8 µg/mL (≈ 5.54 µM)	8 µg/mL (≈ 5.54 µM)	16 µg/mL (≈ 11.1 µM)	>128 µg/mL	no antibacterial activity	>64 µg/mL	>64 µg/mL	8 to 64 µg/mL	>64 µg/mL	>64 µg/mL	>64 µg/mL	16 µg/mL (≈ 11.1 µM)	8 µg/mL (≈ 5.54 µM)	16 µg/mL (≈ 11.1 µM)	>128 µg/mL	MIC (A. baumannii IHMA 777621): >64 µg/mL; MIC (A. baumannii HUMC1): >64 µg/mL; MIC (A. baumannii ATCC 17978): >64 µg/mL
CCCCCCCC(=O)N[C@@H](C(=O)N[C@H](CCN)C(=O)NCC(=O)N[C@H](CO)C(=O)N[C@H](Cc1c[nH]c2ccccc12)C(=O)N[C@@H](CO)C(=O)N[C@@H](CCN)C(=O)N[C@H](CCN)C(=O)N[C@@H](CCN)C(=O)N[C@@H](CCC(=O)O)C(=O)N[C@H](C(=O)N[C@@H](C(=O)N[C@@H](C)C(=O)O)[C@@H](C)CC)C(C)C)C(C)C [Oct-Dab9] (Octanoyl-[dV][dDab]G[dS][dW]S[Dab][dDab][Dab]EV[d(aIle)]A-OH)	>64 µg/mL	>64 µg/mL	>64 µg/mL	>64 µg/mL	8 µg/mL (≈ 5.43 µM)	>64 µg/mL	>64 µg/mL	>64 µg/mL	>128 µg/mL	no antibacterial activity	>64 µg/mL	>64 µg/mL	8 to 64 µg/mL	>64 µg/mL	>64 µg/mL	>64 µg/mL	>64 µg/mL	>64 µg/mL	>64 µg/mL	>128 µg/mL	MIC (A. baumannii IHMA 777621): >64 µg/mL; MIC (A. baumannii HUMC1): >64 µg/mL; MIC (A. baumannii ATCC 17978): >64 µg/mL
CCCCCCCC(=O)N[C@@H](C(=O)N[C@H](CCN)C(=O)NCC(=O)N[C@H](CO)C(=O)N[C@H](Cc1c[nH]c2ccccc12)C(=O)N[C@@H](CO)C(=O)N[C@@H](CCN)C(=O)N[C@H](CCN)C(=O)N[C@@H](CCC(=O)O)C(=O)N[C@@H](CCC(=O)O)C(=O)N[C@H](C(=O)N[C@@H](C(=O)N[C@@H](C)C(=O)O)[C@@H](C)CC)C(C)C)C(C)C [Oct-Glu9] (Octanoyl-[dV][dDab]G[dS][dW]S[Dab][dDab]EEV[d(aIle)]A-OH)	>64 µg/mL	>64 µg/mL	>64 µg/mL	>64 µg/mL	>64 µg/mL	>64 µg/mL	>64 µg/mL	>64 µg/mL	>128 µg/mL	no antibacterial activity	>64 µg/mL	>64 µg/mL	8 to 64 µg/mL	>64 µg/mL	>64 µg/mL	>64 µg/mL	>64 µg/mL	64 µg/mL (≈ 42.6 µM)	>64 µg/mL	>128 µg/mL	MIC (A. baumannii IHMA 777621): >64 µg/mL; MIC (A. baumannii HUMC1): >64 µg/mL; MIC (A. baumannii ATCC 17978): >64 µg/mL
CCCCCCCC(=O)N[C@@H](C(=O)N[C@H](CCN)C(=O)NCC(=O)N[C@H](CO)C(=O)N[C@H](Cc1c[nH]c2ccccc12)C(=O)N[C@@H](CO)C(=O)N[C@@H](CCN)C(=O)N[C@H](CCN)C(=O)NCC(=O)N[C@@H](CCC(=O)O)C(=O)N[C@H](C(=O)N[C@@H](C(=O)N[C@@H](C)C(=O)O)[C@@H](C)CC)C(C)C)C(C)C [Oct-Gly9] (Octanoyl-[dV][dDab]G[dS][dW]S[Dab][dDab]GEV[d(aIle)]A-OH)	>64 µg/mL	>64 µg/mL	64 µg/mL (≈ 44.7 µM)	>64 µg/mL	32 µg/mL (≈ 22.4 µM)	16 µg/mL (≈ 11.2 µM)	8 µg/mL (≈ 5.59 µM)	32 µg/mL (≈ 22.4 µM)	>128 µg/mL	no antibacterial activity	>64 µg/mL	>64 µg/mL	8 to 64 µg/mL	>64 µg/mL	>64 µg/mL	>64 µg/mL	16 µg/mL (≈ 11.2 µM)	16 µg/mL (≈ 11.2 µM)	16 µg/mL (≈ 11.2 µM)	>128 µg/mL	MIC (A. baumannii IHMA 777621): >64 µg/mL; MIC (A. baumannii HUMC1): >64 µg/mL; MIC (A. baumannii ATCC 17978): >64 µg/mL
